Measurements from paper PMC5289641, “Bioactivity of a modified human Glucagon-like peptide-1” (PLoS ONE, 2017).
Like-named read-outs stand apart in the source and are kept apart here. Where no end group is shown, it is not given here.

What was measured:
pancreatin = conditions: peptide 2.5 mg/mL, pancreatin 1.0 mg/mL, PBS pH 7.4, 37°C, SDS-PAGE with silver staining
[1] = system: Mouse insulinoma cells (MIN6); conditions: 48 h, CCK-8, OD450
Method: Mouse insulinoma cells (MIN6) (iCell Bioscience, Inc. Shanghai, China) were cultured in a 25 cm^2 cell culture flasks and then seeded into 96-well microplates at a density of 6.0×10^4 cells per well for the cell proliferation assay. […] After 48 h of incubation, 10 μL CCK-8 solution (cell counting kit, Dojindo China Co., Ltd. Shanghai, China) was gently mixed into the culture and the culture was further incubated for 1 to 4 hours. A microplate reader (Bio-Rad, USA) was used to measure cell viability at a 450 nm wavelength (OD450). The cell viability ratio (CRV) was calculated as (A-A0)/A0 × 100% (where A was the absorbance of the treated cell culture and A0 was the OD450 value of a blank (RPMI 1640 medium only)).
Fig 3 Mouse pancreatic β cell proliferation (A), RT-qPCR analysis of gene expression (B), and insulin secretion (C). MIN6 cells were seeded into flat-bottomed 96-well microtiter plates at a density of 6.0×10^4 cells per well. […] The control was cell cultures treated with DPBS only. […] The controls were cells incubated with just DPBS in the presence of 10mM glucose. Cell culture supernatants were collected and insulin concentration determined using a mouse insulin ELISA kit (JiNingShiYe Ltd. Shanghai, China). Data shown represent the mean ±SD (n = 6). Different letters or (*) indicate significant difference at p<0.05.

pepsin = pepsin (Sus scrofa, UniProt P00791); conditions: peptide 1 mg/mL, pepsin 2 mg/mL, HCl solution pH 1.5~2.0, 37°C, SDS-PAGE with silver staining
pepsin, sequence (P00791 60-385): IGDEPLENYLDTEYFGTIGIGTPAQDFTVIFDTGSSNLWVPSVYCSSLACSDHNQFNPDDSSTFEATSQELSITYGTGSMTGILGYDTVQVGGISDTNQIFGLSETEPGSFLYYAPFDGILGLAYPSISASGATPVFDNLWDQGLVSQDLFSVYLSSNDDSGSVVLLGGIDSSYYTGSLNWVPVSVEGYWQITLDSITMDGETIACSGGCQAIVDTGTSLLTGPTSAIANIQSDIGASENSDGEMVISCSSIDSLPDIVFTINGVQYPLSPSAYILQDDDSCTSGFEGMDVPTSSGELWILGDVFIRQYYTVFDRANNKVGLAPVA
Method: (§1) Samples (20 μL) treated with either trypsin or pepsin for different lengths of time were then mixed with SDS-PAGE loading buffer (2×), heated at 100°С for 10 min, and then analyzed with SDS-PAGE. Protein bands on the gels were visualized by silver staining.
(§2) The reaction solutions were sampled at different time points and analyzed by SDS-PAGE. […] Negative control is trypsin only.

trypsin = conditions: peptide 10 mg/mL, trypsin 4 mg/mL, PBS pH 7.4, 37°C, SDS-PAGE with silver staining
Method: as §1, §2

| Compound | State after 5 min with pancreatin (pancreatin) | State after 15 min in pancreatin (pancreatin) | Cell viability ratio (CRV) ([1]; 0.3 μM peptide) [%] | Cell viability ratio (CRV) ([1]; 3 μM peptide) [%] | Cell viability ratio (CRV) ([1]; 15 μM peptide) [%] | Time to degradation by pepsin (pepsin) [min] | State after 8 h incubation with trypsin (trypsin; 8 h) | Resistance to pancreatin cleavage relative to native GLP-1 (pancreatin) | Resistance to trypsin cleavage relative to native GLP-1 (trypsin) | Time resistant to trypsin cleavage (trypsin) |
| --- | --- | --- | --- | --- | --- | --- | --- | --- | --- | --- |
| CC[C@H](C)[C@H](NC(=O)[C@H](Cc1ccccc1)NC(=O)[C@H](CCC(=O)O)NC(=O)[C@H](CCCCN)NC(=O)[C@H](C)NC(=O)[C@H](C)NC(=O)[C@H](CCC(N)=O)NC(=O)CNC(=O)[C@H](CCC(=O)O)NC(=O)[C@H](CC(C)C)NC(=O)[C@H](Cc1ccc(O)cc1)NC(=O)[C@H](CO)NC(=O)[C@H](CO)NC(=O)[C@@H](NC(=O)[C@H](CC(=O)O)NC(=O)[C@H](CO)NC(=O)[C@@H](NC(=O)[C@H](Cc1ccccc1)NC(=O)[C@@H](NC(=O)CNC(=O)[C@H](CCC(=O)O)NC(=O)[C@H](C)NC(=O)[C@@H](N)Cc1c[nH]cn1)[C@@H](C)O)[C@@H](C)O)C(C)C)C(=O)N[C@@H](C)C(=O)N[C@@H](Cc1c[nH]c2ccccc12)C(=O)N[C@@H](CC(C)C)C(=O)N[C@H](C(=O)N[C@@H](CCCCN)C(=O)NCC(=O)N[C@@H](CCCNC(=N)N)C(N)=O)C(C)C [GLP-1, reference compound] | quickly degraded | completely destroyed | 15.65 | 23.65 | 58.56 | ≤ 10 | completely degraded |  |  |  |
| HGEGTFTSDVSSYLEGQAAQEFIAWLVDGR-NH2 [mGLP-1] | quickly degraded | faint mGLP-1 was still detectable | 10.58 | 20.58 | 60.26 | ≤ 10 |  | more resistant | more resistant | up to 8 hours |
